Laboratory results: ChEMBL document CHEMBL4725289, “Structure-activity relationship studies for the development of inhibitors of murine adipose triglyceride lipase (ATGL)” (Bioorg Med Chem, 2020)

Legend:
[1] = target: T1, Patatin-like phospholipase domain-containing protein 2 (Mus musculus) (UniProt Q8BJ56); experiment: Inhibition of murine ATGL expressed in COS-7 cells at 200 uM relative to control; type: cell-based
T1 sequence (whole entry): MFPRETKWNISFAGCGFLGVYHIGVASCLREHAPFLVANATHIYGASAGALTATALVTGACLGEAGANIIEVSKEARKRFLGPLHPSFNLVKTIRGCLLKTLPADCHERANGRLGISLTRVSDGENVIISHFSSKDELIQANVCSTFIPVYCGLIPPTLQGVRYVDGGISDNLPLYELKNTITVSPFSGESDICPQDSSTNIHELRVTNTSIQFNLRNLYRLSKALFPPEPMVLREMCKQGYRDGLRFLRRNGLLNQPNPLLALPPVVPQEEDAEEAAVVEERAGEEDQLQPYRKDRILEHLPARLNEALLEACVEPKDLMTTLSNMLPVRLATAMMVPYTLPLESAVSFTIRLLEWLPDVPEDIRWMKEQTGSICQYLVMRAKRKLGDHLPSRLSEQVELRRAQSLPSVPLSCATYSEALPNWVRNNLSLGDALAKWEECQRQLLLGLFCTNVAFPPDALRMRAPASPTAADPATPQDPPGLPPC

[2] = Inhibition of isoproterenol-stimulated lipolysis in ATGL-ko mouse at 200 uM, ip after 2 hrs; type: functional
[3] = target: T2, Patatin-like phospholipase domain-containing protein 2 (Mus musculus, UniProt Q8BJ56); experiment: Inhibition of murine ATGL expressed in COS-7 cells; type: cell-based
T2 sequence (Q8BJ56 whole entry): T1 sequence (whole entry)

[4] = In vivo inhibition of ATGL in mouse assessed as decrease in plasma fatty acid release at 200 uM, ip measured up to 8 hrs; type: functional; settings: time hrs <=8

- inhibition [1]: 87%
- IC50 [3]: 40 µM
Compound: CCOC(=O)c1cccc(-c2ccc(N(C)C)cc2)c1
- inhibition in vivo at 200 µM [2]: 60%
- inhibition in vivo at 200 µM [4]: 40%
